Laboratory results taken from patent US20240109850A1, “Covalent PPARG inverse-agonists” (Bayer Aktiengesellschaft, priority 2022, published 2024).

Molecular target: T1, PPARG-LBD (Homo sapiens, UniProt P37231)
T1 construct: purchased ThermoFisher
T1 sequence (P37231 238-503 limits assumed): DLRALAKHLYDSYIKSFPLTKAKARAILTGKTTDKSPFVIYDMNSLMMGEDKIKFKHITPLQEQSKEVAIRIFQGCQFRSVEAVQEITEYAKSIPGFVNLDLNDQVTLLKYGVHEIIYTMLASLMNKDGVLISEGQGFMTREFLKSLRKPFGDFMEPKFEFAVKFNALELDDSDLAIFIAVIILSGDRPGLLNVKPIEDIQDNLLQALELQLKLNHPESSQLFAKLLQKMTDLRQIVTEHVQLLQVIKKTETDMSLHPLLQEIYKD
Test: Biochemical LanthaScreen TR-FRET PPAR gamma corepressor assay (PPARG-LBD / NCOR2 peptide)
Conditions: 2 h, read-out: Efficacy
Protocol: Biochemical Assay for Determining Inverse Agonist Activity of Compounds
A biochemical interaction assay measuring the ligand-dependent changes in interactions between the PPARG-LBD and a fluorescent peptide from the corepressor, NCOR2 (Smrt ID2, ThermoFisher), was performed to evaluate inverse agonist activity.
This assay was performed according to the manufacturers protocol (LanthaScreen TR-FRET PPAR gamma Corepressor Assay, ThermoFisher). […] After incubation the FRET signal was measured using an PHERAstar Plus Plate Reader (BMG). Every sample was tested in duplicate and mean values were used to calculate the EC50 values and efficacies of the compounds. A model of nonlinear regression curve fit was used for calculation.

Compound `C=CC(=O)Nc1ccc2oc(-c3ccc(CC)cc3)nc2c1` [Example 24, N-[2-(4-Ethylphenyl)-1,3-benzoxazol-5-yl]prop-2-enamide] has an Emax of 0%.
